According to patent US10894784B2, “Heteroarylbenzimidazole compounds” (BAYER PHARMA AKTIENGESELLSCHAFT, priority 2015, dated 2021):
pIC50: −log10 of the molar value.

Biological target: TBK1 (Homo sapiens (Human), UniProt Q9UHD2)
Assay: TBK1 low ATP kinase assay (in vitro assay 1)
Type: biochemical
Details: in vitro assay 1, read-out: TBK1 low ATP kinase assay IC50

TBK1, sequence (Q9UHD2 whole entry): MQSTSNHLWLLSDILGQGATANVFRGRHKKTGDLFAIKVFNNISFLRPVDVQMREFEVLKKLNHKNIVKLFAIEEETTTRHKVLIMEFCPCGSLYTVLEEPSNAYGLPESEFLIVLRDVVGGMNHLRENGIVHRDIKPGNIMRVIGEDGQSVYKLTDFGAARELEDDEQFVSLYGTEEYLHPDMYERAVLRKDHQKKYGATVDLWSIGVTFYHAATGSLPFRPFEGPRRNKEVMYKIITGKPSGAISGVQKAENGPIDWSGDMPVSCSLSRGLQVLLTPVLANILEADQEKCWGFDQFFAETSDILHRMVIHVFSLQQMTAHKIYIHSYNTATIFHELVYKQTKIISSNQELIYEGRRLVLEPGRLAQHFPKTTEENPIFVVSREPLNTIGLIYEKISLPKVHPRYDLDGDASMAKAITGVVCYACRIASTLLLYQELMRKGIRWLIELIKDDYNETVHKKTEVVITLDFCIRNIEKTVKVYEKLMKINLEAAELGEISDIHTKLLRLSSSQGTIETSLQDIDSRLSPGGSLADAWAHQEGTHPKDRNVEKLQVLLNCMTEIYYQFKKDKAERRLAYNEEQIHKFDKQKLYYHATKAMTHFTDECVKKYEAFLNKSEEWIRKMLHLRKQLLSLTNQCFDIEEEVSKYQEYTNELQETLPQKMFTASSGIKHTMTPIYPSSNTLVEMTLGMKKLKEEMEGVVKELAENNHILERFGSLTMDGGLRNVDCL

| SMILES | pIC50 |
| --- | --- |
| Cc1nccc(-c2ccc3nc(Nc4cc(CN5CCN(C(=O)C6CC6)CC5)ccn4)[nH]c3c2)n1 [Example 24.01.03, cyclopropyl{4-[(2-{[6-(2-methylpyrimidin-4-yl)-1H-benzimidazol-2-yl]amino}pyridin-4-yl)methyl]piperazin-1-yl}methanone] | 7.36 |
| COc1cnccc1-c1ccc2nc(Nc3cc(CN4CCN(C(=O)C5CCC5)CC4)ccn3)[nH]c2c1 [Example 04.04, cyclobutyl{4-[(2-{[6-(3-methoxypyridin-4-yl)-1H-benzimidazol-2-yl]amino}pyridin-4-yl)methyl]piperazin-1-yl}methanone] | 7.65 |
| Cc1noc(-c2ccc3nc(Nc4cc(CN5CCN(c6ccccc6)CC5)ccn4)[nH]c3c2)n1 [Example 101.04, 6-(3-methyl-1,2,4-oxadiazol-5-yl)-N-{4-[(4-phenylpiperazin-1-yl)methyl]pyridin-2-yl}-1H-benzimidazol-2-amine] | 5.52 |
| COc1cc(-c2ccc3nc(Nc4cc(C(C)N5CCN(C(=O)C6CC6)CC5)ccn4)[nH]c3c2)ncn1 (racemic) [Example 34.02.02, (rac)-cyclopropyl{4-[1-(2-{[6-(6-methoxypyrimidin-4-yl)-1H-benzimidazol-2-yl]amino}pyridin-4-yl)ethyl]piperazin-1-yl}methanone] | 8.04 |
| Cc1cc(-c2ccc3nc(Nc4cc(C(C)N5CCN(C(=O)OC(C)(C)C)CC5)ccn4)[nH]c3c2Cl)ncn1 (single isomer, unassigned) [Example 98.01, tert-butyl 4-[(1R or 1S)-1-(2-{[7-chloro-6-(6-methylpyrimidin-4-yl)-1H-benzimidazol-2-yl]amino}pyridin-4-yl)ethyl]piperazine-1-carboxylate] | 7.00 |
| Cc1noc(-c2ccc3nc(Nc4cc(CN5CCN(c6ncncn6)CC5)ccn4)[nH]c3c2)n1 [Example 101.27, 6-(3-methyl-1,2,4-oxadiazol-5-yl)-N-(4-{[4-(1,3,5-triazin-2-yl)piperazin-1-yl]methyl}pyridin-2-yl)-1H-benzimidazol-2-amine] | 6.46 |
| CC(C)Cc1nc(-c2ccc3nc(Nc4cc(CN5CCN(C(=O)OC(C)(C)C)CC5)ccn4)[nH]c3c2)n(C)n1 [Example 42.01, tert-butyl 4-{[2-({6-[1-methyl-3-(2-methylpropyl)-1H-1,2,4-triazol-5-yl]-1H-benzimidazol-2-yl}amino)pyridin-4-yl]methyl}piperazine-1-carboxylate] | 6.24 |
| COc1cc(-c2ccc3nc(Nc4cc(C(C)N5CCN(C(=O)CC(F)(F)F)CC5)ccn4)[nH]c3c2)ncn1 (single isomer, unassigned) [Example 34.03.01.A, 3,3,3-trifluoro-1-{4-[(1R or 1S)-1-(2-{[6-(6-methoxypyrimidin-4-yl)-1H-benzimidazol-2-yl]amino}pyridin-4-yl)ethyl]piperazin-1-yl}propan-1-one] | 7.92 |
| COc1ccncc1-c1ccc2nc(Nc3cc(CN4CCN(C(=O)C5CCC5)CC4)ccn3)[nH]c2c1 [Example 14.01, cyclobutyl{4-[(2-{[6-(4-methoxypyridin-3-yl)-1H-benzimidazol-2-yl]amino}pyridin-4-yl)methyl]piperazin-1-yl}methanone] | 6.71 |
| CNc1cc(-c2ccc3nc(Nc4cc(CN5CCN(C(=O)CC(F)(F)F)CC5)ccn4)[nH]c3c2)ncn1 [Example 150.02, 3,3,3-trifluoro-1-(4-{[2-({6-[6-(methylamino)pyrimidin-4-yl]-1H-benzimidazol-2-yl}amino)pyridin-4-yl]methyl}piperazin-1-yl)propan-1-one] | 8.02 |
| CCOc1c(-c2ccncc2OC)ccc2nc(Nc3cc(CN4CCN(C(=O)C5CCC5)CC4)ccn3)[nH]c12 [Example 51.04, cyclobutyl{4-[(2-{[7-ethoxy-6-(3-methoxypyridin-4-yl)-1H-benzimidazol-2-yl]amino}pyridin-4-yl)methyl]piperazin-1-yl}methanone] | 6.69 |
| Cc1nccc(-c2ccc3nc(Nc4cc(CN5CCN(C(=O)C6CC6)CC5)cc(C(F)(F)F)n4)[nH]c3c2)n1 [Example 24.03.01, cyclopropyl(4-{[2-{[6-(2-methylpyrimidin-4-yl)-1H-benzimidazol-2-yl]amino}-6-(trifluoromethyl)pyridin-4-yl]methyl}piperazin-1-yl)methanone] | 6.32 |

Second part, the molecule after the results:

| pIC50 | SMILES |
| --- | --- |
| 7.15 | CN(C)c1cc(-c2ccc3nc(Nc4cc(CN5CCN(C(=O)OC(C)(C)C)CC5)ccn4)[nH]c3c2)ccn1 [Example 135.01, tert-butyl 4-{[2-({6-[2-(dimethylamino)pyridin-4-yl]-1H-benzimidazol-2-yl}amino)pyridin-4-yl]methyl}piperazine-1-carboxylate] |
| 8.03 | CC(c1ccnc(Nc2nc3ccc(-c4cnn(CC5CC5)c4)c(Cl)c3[nH]2)c1)N1CCN(C(=O)OC(C)(C)C)CC1 (single isomer, unassigned) [Example 122.01, tert-butyl 4-{(1R or 1S)-1-[2-({7-chloro-6-[1-(cyclopropylmethyl)-1H-pyrazol-4-yl]-1H-benzimidazol-2-yl}amino)pyridin-4-yl]ethyl}piperazine-1-carboxylate] |
| 6.98 | CC(C)(C)OC(=O)N1CCN(Cc2ccnc(Nc3nc4ccc(-c5ncnc(NCC6CC6)c5F)cc4[nH]3)c2)CC1 [Example 195.01, tert-butyl 4-({2-[(6-{6-[(cyclopropylmethyl)amino]-5-fluoropyrimidin-4-yl}-1H-benzimidazol-2-yl)amino]pyridin-4-yl}methyl)piperazine-1-carboxylate] |
| 7.21 | Cc1cc(-c2ccc3nc(Nc4cc(CN5CCN(C(=O)CC(F)(F)F)CC5)ccn4)[nH]c3c2)c(F)cn1 [Example 131.02, 3,3,3-trifluoro-1-{4-[(2-{[6-(5-fluoro-2-methylpyridin-4-yl)-1H-benzimidazol-2-yl]amino}pyridin-4-yl)methyl]piperazin-1-yl}propan-1-one] |
| 6.67 | COc1nc(Cl)cc(-c2ccc3nc(Nc4cc(CN5CCN(C(=O)OC(C)(C)C)CC5)ccn4)[nH]c3c2)n1 [Example 185.01, tert-butyl 4-[(2-{[6-(6-chloro-2-methoxypyrimidin-4-yl)-1H-benzimidazol-2-yl]amino}pyridin-4-yl)methyl]piperazine-1-carboxylate] |
| 5.74 | CN(C)c1nccnc1-c1ccc2nc(Nc3cc(CN4CCN(C(=O)CC(F)(F)F)CC4)ccn3)[nH]c2c1 [Example 196.02, 1-(4-{[2-({6-[3-(dimethylamino)pyrazin-2-yl]-1H-benzimidazol-2-yl}amino)pyridin-4-yl]methyl}piperazin-1-yl)-3,3,3-trifluoropropan-1-one] |
| 9.12 | CC(c1ccnc(Nc2nc3ccc(-c4cc(N5CC(F)(F)C5)ncn4)cc3[nH]2)c1)N1CCN(C(=O)C2CC2)CC1 (single isomer, unassigned) [Example 116.02, cyclopropyl(4-{(1R or 1S)-1-[2-({6-[6-(3,3-difluoroazetidin-1-yl)pyrimidin-4-yl]-1H-benzimidazol-2-yl}amino)pyridin-4-yl]ethyl}piperazin-1-yl)methanone] |
| 6.56 | CC(C)(C)OC(=O)N1CCN(Cc2ccnc(Nc3nc4ccc(-c5ncnc6c5COC6)cc4[nH]3)c2)CC1 [Example 182.01, tert-butyl 4-[(2-{[6-(5,7-dihydrofuro[3,4-d]pyrimidin-4-yl)-1H-benzimidazol-2-yl]amino}pyridin-4-yl)methyl]piperazine-1-carboxylate] |
| 6.65 | O=C(C1CC1)N1CCN(Cc2ccnc(Nc3nc4ccc(-c5ccsc5Cl)cc4[nH]3)c2)CC1 [Example 175.03, {4-[(2-{[6-(2-chlorothiophen-3-yl)-1H-benzimidazol-2-yl]amino}pyridin-4-yl)methyl]piperazin-1-yl}(cyclopropyl)methanone] |
| 7.96 | CC(c1ccnc(Nc2nc3ccc(-c4cc(OCC(F)(F)F)ncn4)cc3[nH]2)c1)N1CCN(C(=O)C2(C(F)(F)F)CC2)CC1 (single isomer, unassigned) [Example 119.04, (4-{(1R or 1S)-1-[2-({6-[6-(2,2,2-trifluoroethoxy)pyrimidin-4-yl]-1H-benzimidazol-2-yl}amino)pyridin-4-yl]ethyl}piperazin-1-yl)[1-(trifluoromethyl)cyclopropyl]methanone] |
| 8.28 | CC(c1ccnc(Nc2nc3ccc(-c4cnn(C[C@@H]5CC5(Cl)Cl)c4)cc3[nH]2)c1)N1CCN(C(=O)CC(F)(F)F)CC1 (single isomer, unassigned) [Example 170.02, 1-{4-[(1R or 1S)-1-(2-{[6-(1-{[(1RS)-2,2-dichlorocyclopropyl]methyl}-1H-pyrazol-4-yl)-1H-benzimidazol-2-yl]amino}pyridin-4-yl)ethyl]piperazin-1-yl}-3,3,3-trifluoropropan-1-one] |
| 8.77 | CC(c1ccnc(Nc2nc3ccc(-c4cc(OCC(C)(F)F)ncn4)cc3[nH]2)c1)N1CCN(C(=O)CC(F)(F)F)CC1 (single isomer, unassigned) [Example 165.02, 1-(4-{(1R or 1S)-1-[2-({6-[6-(2,2-difluoropropoxy)pyrimidin-4-yl]-1H-benzimidazol-2-yl}amino)pyridin-4-yl]ethyl}piperazin-1-yl)-3,3,3-trifluoropropan-1-one] |
| 5.14 | Cc1c(-c2ccc3nc(Nc4cc(CN5CCN(C(=O)OC(C)(C)C)CC5)ccn4)[nH]c3c2)ncnc1C(F)(F)F [Example 183.01, tert-butyl 4-{[2-({6-[5-methyl-6-(trifluoromethyl)pyrimidin-4-yl]-1H-benzimidazol-2-yl}amino)pyridin-4-yl]methyl}piperazine-1-carboxylate] |
| 6.19 | Cc1noc(-c2ccc3nc(Nc4cc(CN5CCN(C(=O)CC(F)(F)F)CC5)c(Br)cn4)[nH]c3c2)n1 [Example 125.02, 1-{4-[(5-bromo-2-{[6-(3-methyl-1,2,4-oxadiazol-5-yl)-1H-benzimidazol-2-yl]amino}pyridin-4-yl)methyl]piperazin-1-yl}-3,3,3-trifluoropropan-1-one] |
| 7.44 | CCN(CC)c1cc(-c2ccc3nc(Nc4cc(CN5CCN(C(=O)OC(C)(C)C)CC5)ccn4)[nH]c3c2)ncn1 [Example 155.01, tert-butyl 4-{[2-({6-[6-(diethylamino)pyrimidin-4-yl]-1H-benzimidazol-2-yl}amino)pyridin-4-yl]methyl}piperazine-1-carboxylate] |
